Measurements as given in patent US12528774B2, “Thiosemicarbazone compounds and uses thereof” (The Regents of the University of California, priority 2019, dated 2026).

Tests used:
MIAPACA2 PDAC cells = assay: Intracellular copper measurement by ICP-MS; format: cell-based, human; details: HCT13 25 nM, 24 h, with and without 20 μM Cu(II)
From the text: FIG. 1A: IC50 values in a panel of human and mouse prostate cancer (PC)(cell lines CF-2, LNCaP, 22Rv1, RM-1, MyC CaP); small cell lung carcinoma (SCLC)(cell lines NCI-H1963, NCI-H146, NCI-H526); pancreatic ductal adenocarcinoma (PDAC)(CFPAC1, SW1990, HS766T, PANC0203, PANC0813, ASPC1, HPAFII, PATU8902, PANC0327, PANC1, YAPC, L36PL, XWR200, HUPT4, A13A, SUIT2, DAN-G, BxPC3, HPAC, PSN1, SU8686, KP4662, MIAPACA2, PATU8988T); and leukemia (cell lines KG-1, TF-1, Jurkat, MOLT-4, p185-R, MV4-11) models treated with HCT13+Cu(II) (20 μM) for 72 h measured by CellTiterGlo. […] (mean±SD, n=2, one-way ANOVA corrected for multiple comparisons by Bonferroni adjustment, * P<0.05; **P<0.01; ***P<0.001).
The MIAPACA2 cell line, a well-characterized PDAC model that was highly sensitive to HCT13 treatment, was used to further investigate the mechanism of action of our lead compound. MIAPACA2 proliferation was measured in response to HCT13 in the presence and absence of 20 μM CuCl2 (Cu(II)), as well as in response to 20 μM Cu(II) alone (FIG. 1B). […] To probe whether HCT13 was acting as an ionophore, intracellular copper levels were measured using inductively coupled plasma mass spectrometry (ICP-MS). […]
Intracellular Cu(II) measurement. […] The concentration of Cu(II) was measured using Inductive Coupled Plasma Mass Spectrometry (ICP-MS) using standard procedure.

[1] = system: electron transport chain complexes of isolated mitochondria; assay: Electron flow assay in isolated mitochondria; format: biochemical, mouse; details: HCT-13 + Cu(II) 20 μM
Protocol: FIG. 3A: Mito Stress Test of MIAPACA2 PDAC cells treated with HCT13 (25 nM)+Cu(II) (20 μM) for 24h. FIG. 3B: electron flow assay in isolated mitochondria treated with HCT-13 (100 nM)+Cu(II) (20 μM) for 1h. FIG. 3C: viability of 143 BTK parental (wild type, WT) and ρ0 cells after 48h of the indicated HCT13 concentration+Cu(II) (20 μM) treatment, assessed with Trypan Blue Staining. FIG. 3D: 48h cell cycle histogram and plots of S-phase arrest plots in 143 BTK WT and 143 BTK ρ0 cells at 24, 48 and 72h following treatment with indicated concentrations of HCT13+Cu(II)(20 μM). (mean±SD, n=2, one-way ANOVA corrected for multiple comparisons by Bonferroni adjustment, * P<0.05; ** P<0.01; *** P<0.001). […]
Mito Stress Test and Electron Flow Assay: All oxygen consumption rate (OCR) was measured using a XF24 Analyzer (Agilent) and normalized per μg protein. […] OCR was measured before (total respiration) and after the sequential injection of 1 μM oligomycin (complex V inhibitor), 0.75 μM FCCP (uncoupler), and 1 μM of rotenone and myxothiazol (complex I and III inhibitors, respectively), as described previously (1). Mitochondrial respiration was calculated by subtracting the non-mitochondrial respiration left after rotenone and myxothiazol injection. […] OCR was measured before and after the sequential injections described in the previous paragraph. […]

CN(C)C(=S)N/N=C/c1nccc2cc(F)ccc12 (mixture of isomers) [HCT13, (E)-2-((6-Fluoroisoquinolin-1-yl)methylene)-N,N-dimethylhydrazine-1-carbothioamide and (Z)-2-((6-Fluoroisoquinolin-1-yl)methylene)-N,N-dimethylhydrazine-1-carbothioamide]
intracellular copper levels (MIAPACA2 PDAC cells): increased | mitochondrial ETC complex activity [1]: decreased activity of complexes I and II | mitochondrial ETC complex activity ([1]; listed as HCT-13): ETC Complex 1 was most dramatically affected
